Laboratory results: patent US5080906A, “Method and composition for oral administration of N-acetylcysteine” (Zambon Group, S.p.A., priority 1989, dated 1992)
Where a name gives a salt, the structure may show the parent alone. Read-outs that look alike come from different tables or passages of the source.

Assays:
[1] = Plasma level of unmodified NAC after oral administration of NAC solutions to rats (GC-MS); format: in vivo, Sprague Dawley rats; conditions: rat, 300 mg/kg NAC (100 μCi/kg 3H-NAC), 0-8 h, * p < 0.005 (Student's t) for NAC-THAM 1:1, read-out: AUC0-8 h, plasma NAC (total unmodified NAC)
Procedure: Sprague Dawley rats after overnight fast were divided into 7 groups of 33 animals each. These seven groups of animals were treated with different NAC solutions by oral route according to the following scheme: […] Blood samples were withdrawn just before the treatment and 15, 20, 45, 60, 90, 120, 240, 360, 480 and 1,440 minutes after treatment, via a heparinized syringe. The blood was immediately transferred into plastic tubes containing sodium dithionite (1 mg/5 μl) and 0.02N sodium EDTA (200 μl ). The plasma was separated by centrifugation at 5,000×g at 4° C. for 20 minutes and the samples thus obtained were stored at -20° C. until the analysis. […] The samples were kept at 37° C. for one hour and then an acetone:formic acid=4:1 (1 ml) mixture was added. The proteins were separated at 20,000×g for 20 minutes by centrifugation. To the supernatant 2M HCl (200 μl) was added and then the NAC was extracted twice with ethyl acetate (6 ml). […] At the end of the reaction, excess isopropanol was eliminated and the samples were reacted with 3:1 ethyl acetate:pentafluoropropionic anhydride (200 μl) at 60° C. for 30 minutes. […] In Table 1 the plasma concentrations of NAC, expressed as AUC0-8h, the total NAC detected expressed as g/l, are reported for each group of animals and treatment regimen.

in vivo = assay: in vivo; set-up: species or system Male Beagle dogs; conditions: dog, po, 50 mg/kg
Procedure: (§1) Male Beagle dogs were fasted overnight and were divided into 4 groups of 4 animals each. The four groups were treated orally with different NAC solutions according to the following scheme: […] For each group of animals the dose of NAC ([…]) contained an amount of ^14 C-NAC equal to 20 μCi/kg. Blood samples were withdrawn by a heparinized syringe just before the treatment and 10, 20, 30, 45, 60, 120, 240, 360, 480 and 1,440 minutes after treatment. The blood samples were treated and stored according to the same procedure described in Example 1.

[2] = result in words; cited from earlier work
[3] = set-up: species or system Male Beagle dogs; conditions: dog, in vivo, po, 50 mg/kg
Procedure: as §1

[4] = Total radioactivity in plasma after oral 3H-NAC in rats; format: in vivo, Sprague Dawley rats; conditions: rat, 300 mg/kg NAC (100 μCi/kg 3H-NAC), 0-24 h
Procedure: Sprague Dawley rats after overnight fast were divided into 7 groups of 33 animals each. These seven groups of animals were treated with different NAC solutions by oral route according to the following scheme:
Group 1-NAC (300 mg/kg) dissolved in water (10 ml/kg)
Group 5-NAC (300 mg/kg) and THAM (222.7 mg/kg) dissolved in water (10 ml/kg); molar ratio 1:1
For each group of animals the NAC dose (300 mg/kg) contained ^3 H-NAC in an amount yielding 100 μCi/kg. Blood samples were withdrawn just before the treatment and 15, 20, 45, 60, 90, 120, 240, 360, 480 and 1,440 minutes after treatment, via a heparinized syringe. The blood was immediately transferred into plastic tubes containing sodium dithionite (1 mg/5 μl) and 0.02N sodium EDTA (200 μl ). The plasma was separated by centrifugation at 5,000×g at 4° C. for 20 minutes and the samples thus obtained were stored at -20° C. until the analysis.
Samples of plasma (50 μl) were added to Lumagel (10 ml), were stirred and were then allowed to stand in the scintillation counter (Beckman LS 8100) at 15° C. for 4 hours. Radioactivity was measured after the stabilization time.
The total radioactivity in plasma after administration of 300 mg/kg of NAC (containing 100 μCi/kg of ^3 H-NAC) (group 1) and after administration of the same amount of NAC with THAM in the ratio 1:1 (group 5) are reported in Table 2.

[5] = THAM salt; result in words; cited from earlier work

| Structure (SMILES) | AUC(0-t) at 8 h [1] [ng·h/mL] | AUC(0-inf) (in vivo; AUC0-.infin., plasma NAC (unmodified)) [ng·h/mL] | solubility [2] | AUC0-24 h, total radioactivity in plasma [3] [mghl^-1] | AUC0-24 h, total radioactivity in plasma [4] [mgh/l] | bioavailability [5] | AUC0-.infin., plasma NAC (unmodified) (in vivo) [mgh/l] | amount of unmodified NAC in plasma compared with NAC alone (in vivo) | total amount of absorbed NAC compared with NAC as such [3] |
| --- | --- | --- | --- | --- | --- | --- | --- | --- | --- |
| CC(=O)N[C@@H](CS)C(=O)O [NAC, N-acetylcysteine] | 105000 ± 3000 | 57500 ± 7290 | soluble | 1864.13 ± 856.57 | 4048.3 ± 105.9 |  |  |  |  |
| C[C@@H]1O[C@@H]1P(=O)(O)O [THAM salt of the antibiotic Fosfomycin] |  |  |  |  |  | better bioavailability |  |  |  |
| CC(=O)N[C@@H](CS)C(=O)O [NAC-lysinate, NAC lysinate] |  |  |  | 1247.23 ± 185.18 |  |  | 73.37 ± 10.33 | do not provide plasma levels meaningfully different from those of NAC itself | not different |
